Structures can show the parent of a compound that is named as a salt. Where two headings read alike, the source gives them in different places.
Assays:
[1] = Attempt to form hydrates: precipitation from pure water, XRPD of precipitate; type: physicochemical; conditions: precipitated from pure water at room temperature and atmospheric pressure
Source text: A “hydrate” indicates a crystalline material with water (H2O) molecules incorporated into the crystal lattice. More particularly, a “non-hydrate forming salt” of nalmefene indicates a salt of which any isolated crystal form contains less than 25 mol % water, such as less than 20 mol % water, such as less than 15 mol % water, such as less than 10 mol % water, such as less than 5 mol % water, such as less than 4, 3, 2 or 1 mol % water, such as substantially no water in the crystal lattice of said salt.

[2] = Dynamic vapour sorption (DVS), water absorption; type: physicochemical
Method: Dynamic vapour sorption experiments were performed using a SMS DVS advantage 01 changing the relative humidity from 30-40% RH up to 90-95% RH in steps of 10%RH.

[3] = Attempt to form solvates: precipitation from organic solvents, XRPD of precipitate; type: physicochemical; conditions: for solvate formation from the organic solvents assessed: EtOH, MeOH, IPA, EtOAc, acetone, ACN, THF, MIBK, toluene and 2.2.2-trifluoroethanol, room temperature, atmospheric pressure; for solvate formation from EtOH: precipitated from EtOH
Source text: A “solvate” indicates a crystalline material with solvent molecules incorporated into the crystal lattice. In the present context, when referring to “solvents” these are limited to non-aqueous solvents, preferably organic solvents. Solvents assessed for solvate formation according to the invention includes the following: ethanol (EtOH), methanol (MeOH), isopropanol (IPA), ethyl acetate (EtOAc), acetone, acetonitrile (ACN), tetrahydrofurane (THF), methyl isobutyl ketone (MIBK), toluene and 2,2,2-trifluoroethanol.
The clear supernatant was diluted and assayed by HPLC. All precipitates were analyzed by XRPD.

[4] = Thermodynamic aqueous solubility in pure water (shaking, HPLC); conditions: for pH: aqueous solubility sample in pure water; for pH / Solubility (mg base/mL), aqueous: 23° C. ± 2°; for Solubility (mg base/mL), aqueous: pure water, normalised to nalmefene free base
[5] = Solubility in organic solvents (HPLC); conditions: 23° C. ± 2°
Method: The suspensions were heated with the purpose of obtaining complete dissolution and then cooled to room temperature and left for equilibrium to be attained. The clear supernatant was diluted and assayed by HPLC. All precipitates were analyzed by XRPD.
For comparison, the solvate formation from nalmefene hydrochloride was also investigated.

[6] = precipitated/crystallized from ethanol, Brittain 1996, cited from earlier work
[7] = Brittain 1996, WO 2010/063292, cited from earlier work
κ receptor = κ receptor (Homo sapiens, UniProt P41145); conditions: in vitro studies; cited from earlier work
Chain of κ receptor (P41145 whole entry): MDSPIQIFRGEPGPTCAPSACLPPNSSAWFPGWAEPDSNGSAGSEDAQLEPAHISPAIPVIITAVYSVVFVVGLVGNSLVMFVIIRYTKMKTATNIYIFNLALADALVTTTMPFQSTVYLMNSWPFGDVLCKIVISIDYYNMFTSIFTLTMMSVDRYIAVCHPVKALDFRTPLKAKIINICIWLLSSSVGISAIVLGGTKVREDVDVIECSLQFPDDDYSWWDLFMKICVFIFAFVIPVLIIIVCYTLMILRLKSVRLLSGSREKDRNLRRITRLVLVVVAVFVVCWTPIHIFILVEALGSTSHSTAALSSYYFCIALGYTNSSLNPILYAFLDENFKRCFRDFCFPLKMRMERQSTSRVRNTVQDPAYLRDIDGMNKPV

δ receptor = δ receptor (Homo sapiens, UniProt P41143); conditions: in vitro studies; cited from earlier work
Chain of δ receptor (P41143 whole entry): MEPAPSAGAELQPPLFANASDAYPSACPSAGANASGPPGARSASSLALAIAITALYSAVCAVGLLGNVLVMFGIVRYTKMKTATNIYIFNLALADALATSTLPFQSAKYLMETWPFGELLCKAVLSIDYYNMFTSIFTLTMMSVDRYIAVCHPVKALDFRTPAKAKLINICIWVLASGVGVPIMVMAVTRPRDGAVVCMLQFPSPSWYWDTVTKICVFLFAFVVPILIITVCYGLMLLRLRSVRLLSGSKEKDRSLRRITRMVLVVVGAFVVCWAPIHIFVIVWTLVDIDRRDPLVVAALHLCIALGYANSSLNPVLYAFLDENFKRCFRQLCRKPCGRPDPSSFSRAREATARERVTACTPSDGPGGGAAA

μ receptor = μ receptor (Homo sapiens, UniProt P35372); conditions: in vitro studies; cited from earlier work
Chain of μ receptor (P35372 whole entry): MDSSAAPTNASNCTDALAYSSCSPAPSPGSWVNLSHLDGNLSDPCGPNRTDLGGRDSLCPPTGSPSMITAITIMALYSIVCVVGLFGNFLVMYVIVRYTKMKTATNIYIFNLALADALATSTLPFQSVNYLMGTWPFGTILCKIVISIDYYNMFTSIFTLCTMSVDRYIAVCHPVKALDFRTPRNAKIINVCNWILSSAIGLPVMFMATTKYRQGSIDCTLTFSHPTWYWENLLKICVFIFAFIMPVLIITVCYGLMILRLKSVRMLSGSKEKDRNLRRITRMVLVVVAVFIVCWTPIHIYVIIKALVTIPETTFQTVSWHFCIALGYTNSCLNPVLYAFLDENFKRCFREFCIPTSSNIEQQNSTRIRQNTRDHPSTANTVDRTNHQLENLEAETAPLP

C=C1CC[C@@]2(O)[C@H]3Cc4ccc(O)c5c4[C@@]2(CCN3CC2CC2)[C@H]1O5.O=C(O)/C=C/C(=O)O
hydrate formation [1]: not to form hydrates | % abs. at 90% RH (water absorption determined by DVS) [2]: 0.6% | solvate formation from 2,2,2-trifluoroethanol ([3]; precipitated from 2,2,2-trifluoroethanol): formed solvate

C=C1CC[C@@]2(O)[C@H]3Cc4ccc(O)c5c4[C@@]2(CCN3CC2CC2)[C@H]1O5.O=C(O)CCCCC(=O)O
hydrate formation [1]: not to form hydrates | % abs. at 90% RH (water absorption determined by DVS) [2]: 0.35% | solvate formation from the organic solvents assessed [3]: No solvates were formed

C=C1CC[C@@]2(O)[C@H]3Cc4ccc(O)c5c4[C@@]2(CCN3CC2CC2)[C@H]1O5.O=C(O)CC(=O)O
hydrate formation [1]: not to form hydrates | % abs. at 90% RH (water absorption determined by DVS) [2]: 0.35% | solvate formation from MeOH ([3]; precipitated from MeOH): formed solvate

C1=Cc2cccc(OC[C@H]3CNCCO3)c2C1.O=S(=O)(O)c1ccccc1 [Benzene sulfonate]
pH [4]: 3.12 | hydrate formation [1]: not to form hydrates | % abs. at 90% RH (water absorption determined by DVS) [2]: <0.2% | solvate formation from EtOH [3]: solvate | solvate formation from EtOH ([3]; listed as benzene sulfonate salt): formed solvate | solvate formation from THF ([3]; precipitated from THF): formed solvate

C=C1CC[C@@]2(O)[C@H]3Cc4ccc(O)c5c4[C@@]2(CCN3CC2CC2)[C@H]1O5.O=C(O)/C=C\C(=O)O [Hydrogen maleate]
hydrate formation [1]: not to form hydrates | % abs. at 90% RH (water absorption determined by DVS) [2]: 0.2% | solvate formation from the organic solvents assessed [3]: No solvates were formed

O=C(O)c1ccccc1O [Salicylate]
pH [4]: 7.14 | Solubility (mg base/mL), aqueous [4]: 3.0 mg base/mL | Solubility (mg base/mL), aqueous ([4]; listed as salicylate salt): 3 mg base/mL | hydrate formation [1]: not to form hydrates | % abs. at 90% RH (water absorption determined by DVS) [2]: 0.4% | Solubility in 2,2,2-trifluoro-EtOH ([5]; 2,2,2-trifluoroethanol, * = precipitated as solvate): 120 mg base/mL | Solubility in ACN ([5]; ACN): 8.2 mg base/mL | Solubility in EtOAc ([5]; EtOAc): 2.0 mg base/mL | Solubility in EtOH ([5]; EtOH, * = precipitated as solvate): 19 mg base/mL | Solubility in IPA ([5]; IPA, * = precipitated as solvate): 0.5* mg base/mL | Solubility in MIBK ([5]; MIBK): 2.9 mg base/mL | Solubility in MeOH ([5]; MeOH, * = precipitated as solvate): 91 mg base/mL | Solubility in THF ([5]; THF): 35 mg base/mL | Solubility in acetone ([5]; acetone): 9.7 mg base/mL | solvate formation from IPA ([3]; precipitated from IPA): formed solvate

C=C1CC[C@@]2(O)[C@H]3Cc4ccc(O)c5c4[C@@]2(CCN3CC2CC2)[C@H]1O5 [nalmefene hydrochloride]
aqueous solubility of the known hydrochloride salt ([4]; unpublished data): 109 mg base/mL | solvate formation from ethanol (literature) [6]: form solvate | solvate formation from ethanol (literature) ([6]; listed as Nalmefene hydrochloride): ethanol solvate | hydrate formation / thermodynamically stable form (literature) ([7]; listed as HCl salt of nalmefene): only thermodynamically stable in hydrated or solvated form | hydrate formation / thermodynamically stable form (literature) ([7]; listed as nalmefene hydrochloride salt): hydrate-forming salt | solvate formation from the organic solvents assessed ([3]; listed as hydrochloride salt): formed solvate from all the organic solvents

C=C1CC[C@@]2(O)[C@H]3Cc4ccc(O)c5c4[C@@]2(CCN3CC2CC2)[C@H]1O5 [nalmefene, 17-(cyclopropylmethyl)-4,5-alpha-epoxy-6-methylenemorphinan-3,14-diol]
activity at the κ receptor (κ receptor): partial agonist activity | activity at the δ receptor (δ receptor): antagonist activity | activity at the μ receptor (μ receptor): antagonist activity

L-lactate
hydrate formation [1]: corresponds to a monohydrate | % abs. at 90% RH (water absorption determined by DVS) [2]: 1.2% | solvate formation from the organic solvents assessed [3]: No solvates were formed

From patent US9938286B2, “Nalmefene salts as medicaments for reducing alcohol consumption or for preventing excessive alcohol consumption” (H. Lundbeck A/S, priority 2013, dated 2018)
